Test results taken from US20250221966A1, “RXFP1 AGONISTS” (BRISTOL-MYERS SQUIBB COMPANY, priority 2021, published 2025).

Target: T1, human RXFP1 (Homo sapiens, UniProt Q9HBX9)
T1 construct: expressed in transfected cells
T1 sequence (Q9HBX9 1-757): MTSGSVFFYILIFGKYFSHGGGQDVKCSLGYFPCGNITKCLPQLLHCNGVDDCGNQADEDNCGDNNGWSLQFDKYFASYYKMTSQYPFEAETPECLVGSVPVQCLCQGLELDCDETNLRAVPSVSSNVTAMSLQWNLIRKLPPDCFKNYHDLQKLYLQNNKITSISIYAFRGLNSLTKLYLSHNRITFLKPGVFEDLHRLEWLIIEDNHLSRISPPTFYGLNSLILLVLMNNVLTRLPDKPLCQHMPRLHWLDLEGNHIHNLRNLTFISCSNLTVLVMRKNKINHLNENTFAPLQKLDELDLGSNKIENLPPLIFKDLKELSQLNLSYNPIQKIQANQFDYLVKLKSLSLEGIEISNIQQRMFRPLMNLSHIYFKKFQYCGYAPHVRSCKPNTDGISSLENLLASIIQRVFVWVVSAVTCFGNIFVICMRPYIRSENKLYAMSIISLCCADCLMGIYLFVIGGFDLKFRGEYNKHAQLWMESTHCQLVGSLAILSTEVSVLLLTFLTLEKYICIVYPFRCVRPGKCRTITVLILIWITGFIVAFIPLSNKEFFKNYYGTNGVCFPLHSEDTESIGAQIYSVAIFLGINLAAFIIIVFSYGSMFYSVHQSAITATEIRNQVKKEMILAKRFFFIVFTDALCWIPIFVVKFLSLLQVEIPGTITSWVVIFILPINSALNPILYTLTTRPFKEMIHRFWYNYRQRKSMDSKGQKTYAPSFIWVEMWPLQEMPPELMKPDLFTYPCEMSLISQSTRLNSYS
Assay: RXFP1 cAMP assay (hRXFP1 HEK293 cAMP assay, HTRF)
Format: cell-based
Details: HEK293 cells stably expressing human RXFP1, 30 min at room temperature, read-out: cAMP hRXFP1 HEK293 Assay EC50
Procedure, shortened: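 In a stable human RXFP1 HEK293 line, compounds acted for 30 min at RT in buffer with 0.5 mM IBMX. HTRF then quantified cellular cAMP.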

Compound | EC50 [nM]
COc1ccc(C2=NOC3COCC23)cc1C(=O)N[C@H]1[C@@H](C(=O)NC(C)(C)C)[C@H]2CC[C@@H]1/C2=C\C1CC1 (some centres unmarked) [compound 545] | 31.5
COc1ccc(C2=NOC3COCC23)cc1C(=O)N[C@H]1[C@@H](C(=O)NC2CC3(C2)CC(F)(F)C3)[C@H]2CC[C@@H]1/C2=C\C1CC1 (some centres unmarked) [compound 605] | 118
COc1c(F)cc(-c2cnc3n2CC(O)CC3)cc1C(=O)N[C@H]1[C@@H](C(=O)Nc2ccc(F)c(C(F)(F)F)c2)[C@H]2CC[C@@H]1/C2=C\C1CC1 (some centres unmarked) [compound 751] | 2.2
COc1ccc(-c2cc(C3=NOC4CC(CO)CC34)ccc2F)cc1C(=O)N[C@H]1[C@@H](C(=O)Nc2ccc(F)c(C(F)(F)F)c2)[C@H]2CC[C@@H]1/C2=C\C1CC1 (some centres unmarked) [compound 953] | 7
O=C(N[C@H]1[C@@H](C(=O)Nc2ccc(F)c(C(F)(F)F)c2)[C@H]2CC[C@@H]1/C2=C\C1CC1)c1cccc(C2=NOC3CC(O)CC23)c1 (some centres unmarked) [compound 628] | 177
COc1ccc(C2=NO[C@H]3C[C@H](CO)C[C@@H]23)cc1C(=O)N[C@H]1[C@@H](C(=O)N[C@H](C)C2(C)CC2)[C@H]2CC[C@@H]1/C2=C\CCC(F)(F)F [compound 812] | 0.8
COc1ccc(C2=NOC3COCC23)cc1C(=O)N[C@H]1[C@@H](C(=O)NC(C)C2CCC2)[C@H]2CC[C@@H]1/C2=C\C1CC1 (single isomer, unassigned) [compound 683] | 626
COc1ccc(C2CCCN(C(=O)C(=O)O)C2)cc1C(=O)NC1C2CCC(/C2=C/C(F)(F)F)C1C(=O)Nc1ccc(F)c(C(F)(F)F)c1 (centres unmarked) [compound 368] | 639
COCCN1CCCC1c1ccc(OC)c(C(=O)N[C@@H]2C3CCC(C3=CC3CC3)[C@@H]2C(=O)Nc2ccc(F)c(C(F)(F)F)c2)c1 (some centres unmarked) [compound 689] | 684
COc1ccc(C2=NOC3CN(C(=O)OC(C)(C)C)CC23)cc1C(=O)N[C@@H]1C2CCC(/C2=C/C2CC2)[C@@H]1C(=O)Nc1ccc(F)c(C(F)(F)F)c1 (some centres unmarked) [compound 436] | 4
COc1ccc(C2=NO[C@H]3C[C@H](CO)C[C@@H]23)cc1C(=O)N[C@H]1[C@@H](C(=O)Nc2ccc(F)c(C(F)(F)F)c2)[C@H]2CC[C@@H]1/C2=C\CC(O)C(F)(F)F (some centres unmarked) [compound 826] | 3
COc1ccc(C2CCN(CC(C)(C)O)C2)cc1C(=O)N[C@@H]1C2CCC(C2=CC2CC2)[C@@H]1C(=O)Nc1ccc(F)c(C(F)(F)F)c1 (some centres unmarked) [compound 601] | 108
COc1ccc(C2=NOC3COCC23)cc1C(=O)N[C@H]1[C@@H](C(=O)NCC2CCC2)[C@H]2CC[C@@H]1/C2=C\C1CC1 (some centres unmarked) [compound 597] | 102
COc1c(F)cc(C2=NOC3CC(CO)CC23)cc1C(=O)N[C@@H]1C2CCC(/C2=C/C2CC2)[C@@H]1C(=O)NC12CC(C#N)(C1)C2 (some centres unmarked) [compound 772] | 3.8
COc1ccc(-c2cc(C(CO)NC(=O)C3CCOCC3)ccc2F)cc1C(=O)N[C@@H]1C2CCC(/C2=C/C2CC2)[C@@H]1C(=O)Nc1ccc(F)c(C(F)(F)F)c1 (some centres unmarked) [compound 257] | 16
COc1ccc(-c2cc(C3=NOC4CC(O)CC34)ccc2F)cc1C(=O)N[C@H]1[C@@H](C(=O)Nc2ccc(F)c(C(F)(F)F)c2)[C@H]2CC[C@@H]1/C2=C\C1CC1 (some centres unmarked) [compound 908] | 3.5
COCC1CC(c2ccc(OC)c(C(=O)N[C@H]3[C@@H](C(=O)Nc4ccc(F)c(C(F)(F)F)c4)[C@H]4CC[C@@H]3C4=CC3CC3)c2)=NO1 (some centres unmarked) [compound 551] | 36.6
COc1c(F)cc(C2=NOC3CC(CO)CC23)cc1C(=O)N[C@H]1[C@@H](C(=O)N[C@H](C)C23CC(C2)C3)[C@H]2CC[C@@H]1/C2=C\C1CC1 (some centres unmarked) [compound 776] | 5
COc1ccc(-c2cc(C(F)F)ccc2F)cc1C(=O)N[C@@H]1C2CCC(/C2=C/C2CC2)[C@@H]1C(=O)Nc1ccc(F)c(C(F)(F)F)c1 (some centres unmarked) [compound 280] | 12
COc1ccc(C2=NOC3CCC(O)C23)cc1C(=O)N[C@H]1[C@@H](C(=O)Nc2ccc(F)c(C(F)(F)F)c2)[C@H]2CC[C@@H]1/C2=C\C1CC1 (single isomer, unassigned) [compound 496] | 10.5

Compound | EC50 [nM]
COc1ccc(C2=NOC3CC(C(=O)O)CC23)cc1C(=O)N[C@H]1[C@@H](C(=O)Nc2ccc(F)c(C(F)(F)F)c2)[C@H]2CC[C@@H]1/C2=C\C1CC1 (some centres unmarked) [compound 851] | 2.8
COc1ccc(-c2cc([C@@H](NC(=O)C3CCOCC3)C(F)(F)F)ccc2F)cc1C(=O)N[C@H]1[C@@H](C(=O)Nc2ccc(F)c(C(F)(F)F)c2)[C@H]2CC[C@@H]1/C2=C\C1CCCC1 [compound 956] | 6.1
COc1ccc(-c2cc(C(=O)O)ccc2F)cc1C(=O)N[C@@H]1C2CCC(/C2=C/C2CC2)[C@@H]1C(=O)NCc1ccccc1OC(F)(F)F (some centres unmarked) [compound 306] | 540
COc1ccc(C2CCOC2)cc1C(=O)N[C@H]1[C@@H](C(=O)Nc2ccc(F)c(C(F)(F)F)c2)[C@H]2CC[C@@H]1/C2=C\C(F)(F)F (stereo partly drawn) [Example 360, (1R,2S,3R,4R,Z)—N-(4-fluoro-3-(trifluoromethyl)phenyl)-3-(2-methoxy-5-(tetrahydrofuran-3-yl)benzamido)-7-(2,2,2-trifluoroethylidene)bicyclo[2.2.1]heptane-2-carboxamide] | 1940
COc1ccc(-c2cc(C(OC(=O)NC(C)(C)C)C(=O)O)ccc2F)cc1C(=O)N[C@H]1[C@@H](C(=O)Nc2ccc(F)c(C(F)(F)F)c2)[C@H]2CC[C@@H]1/C2=C\C1CC(F)(F)C1 (some centres unmarked) [compound 935] | 2.5
O=C(N[C@H]1[C@@H](C(=O)Nc2ccc(F)c(C(F)(F)F)c2)[C@H]2CC[C@@H]1/C2=C\C1CC1)c1cc(C2=NOC3CC(CO)CC23)ccc1F (single isomer, unassigned) [compound 723] | 4980
COc1c(F)cc(C2=NOC3CC(CO)CC23)cc1C(=O)N[C@H]1[C@@H](C(=O)N[C@H](C)C2(C)CC2)[C@H]2CC[C@@H]1/C2=C\C1CC(F)(F)C1 (some centres unmarked) [compound 813] | 1
COc1ccc(-c2cc(C3=NOC4CC(CO)CC34)ccc2F)cc1C(=O)N[C@H]1[C@@H](C(=O)Nc2ccc(F)c(C(F)(F)F)c2)[C@H]2CC[C@@H]1/C2=C\C1CCCC1 (some centres unmarked) [compound 951] | 1
CNC(=O)c1ccc(-c2ccc(OC)c(C(=O)N[C@@H]3C4CCC(/C4=C/c4ccccc4)[C@@H]3C(=O)Nc3ccc(F)c(C(F)(F)F)c3)c2)c(F)c1 (some centres unmarked) [compound 196] | 45
COc1ccc(-c2nc(C(=O)O)co2)cc1C(=O)N[C@@H]1C2CCC(C2=C(C)C)[C@@H]1C(=O)Nc1ccc(F)c(C(F)(F)F)c1 (some centres unmarked) [Example 113] | 1800
COc1ccc(C2=NOC3CC(CO)CC23)cc1C(=O)N[C@@H]1C2CCC(/C2=C/C2CC2)[C@@H]1C(=O)Nc1ccc(F)c(C(F)(F)F)c1 (single isomer, unassigned) [compound 431] | 250
COc1ccc(-c2cc(C(OC(=O)NC3CCC3)C(=O)O)ccc2F)cc1C(=O)N[C@H]1[C@@H](C(=O)Nc2ccc(F)c(C(F)(F)F)c2)[C@H]2CC[C@@H]1/C2=C\C1CC(F)(F)C1 (some centres unmarked) [compound 939] | 0.6
COc1ccc(-c2ccc3c(C(=O)OCc4ccccc4)cnn3c2)cc1C(=O)N[C@@H]1C2CCC(/C2=C/C(F)(F)F)[C@@H]1C(=O)Nc1ccc(F)c(C(F)(F)F)c1 (some centres unmarked) [compound 316] | 81
COc1cc(F)c(F)cc1C(=O)N[C@@H]1C2CCC(/C2=C/c2ccc(F)cc2)[C@@H]1C(=O)Nc1ccc(F)c(C(F)(F)F)c1 (some centres unmarked) [compound 41] | 27
COc1cc(F)c(F)cc1C(=O)N[C@@H]1C2CCC(C2=C(C)C)[C@]1(F)C(=O)Nc1ccc(F)c(C(F)(F)F)c1 (some centres unmarked) [Example 51] | 790
COc1ccc(-c2cc(C(=O)O)ccc2F)cc1C(=O)N[C@@H]1C2CCC(/C2=C/c2cn(C)nn2)[C@@H]1C(=O)Nc1ccc(F)c(C(F)(F)F)c1 (some centres unmarked) [compound 327] | 2040
COc1ccc(C2CN(C(=O)N3CCC(O)CC3)C2)cc1C(=O)N[C@H]1[C@@H](C(=O)Nc2ccc(F)c(C(F)(F)F)c2)[C@H]2CC[C@@H]1/C2=C\C1CC1 [compound 527] | 22.4
COc1ccc(-c2c(C)noc2C)cc1C(=O)N[C@H]1[C@@H](C(=O)Nc2ccc(F)c(C(F)(F)F)c2)[C@H]2CC[C@@H]1C2=C(C)C [compound 104] | 1600
COc1ccc(-c2cc(C(NC(=O)C3CCOCC3)C(=O)O)ccc2F)cc1C(=O)N[C@@H]1C2CCC(/C2=C/C(F)(F)F)[C@@H]1C(=O)Nc1ccc(F)c(C(F)(F)F)c1 (some centres unmarked) [compound 239] | 1
COc1cc(C)c(C2=NOC3CC(CO)CC23)cc1C(=O)N[C@H]1[C@@H](C(=O)Nc2ccc(F)c(C(F)(F)F)c2)[C@H]2CC[C@@H]1C2CC1CC1 (some centres unmarked) [compound 739] | 3.4

Same assay, conditions: cAMP hRXFP1 HEK293 Assay EC50, HEK293 cells stably expressing human RXFP1, 30 min at room temperature

Compound | EC50 [nM]
COc1ccc(-c2cc(C(=O)O)ccc2F)cc1C(=O)N[C@H]1[C@@H](C(=O)Nc2ccc(F)c(C(F)(F)F)c2)[C@H]2CC[C@@H]1/C2=C\c1ccccc1 [compound 80] | 11
